Measured values reported in US20240368084A1, “STING MODULATORS, COMPOSITIONS, AND METHODS OF USE” (University of South Florida, priority 2021, published 2024).

Biological target: His-labeled STING (Homo sapiens, UniProt Q86WV6)
Assay: Microscale thermophoresis (MST) binding assay
Details: for Confidence: confidence class by MST shift units; for Dissociation Constant: MST, incubating with 50 nM 2,3-cGAMP
Method: Nanotemper Monolith NT.115 labeled thermophoresis machine was used with standard treated capillary tubes using samples comprised of labeled protein and titrations of small molecule in 1×PBS. […] Detection of the protein was performed using the blue detection channel with LED excitation power set to 90% and MST set to high allowing 3 s prior to MST on to check for initial fluorescence differences, 25 s for thermophoresis, and 3 s for regeneration after MST off.
Detection of the protein was performed using the blue detection channel with LED excitation power set to 90% and MST set to high allowing 3 s prior to MST on to check for initial fluorescence differences, 25 s for thermophoresis, and 3 s for regeneration after MST off. Analysis was performed using M.O. Affinity Analysis Software with difference between initial fluorescence measured in the first 5 s as compared with thermophoresis at 15 s at 15 different analyte concentrations ranging from 100 zM to 100 μM and exported into Graphpad Prism v.8 using a Log inhibitor v. response 4 parameter fit.
Confidence is categorized as follows: 1=low confidence (<2 MST shift unit−non-statistical); 2=mid confidence (2-3 MST shift units−intermediate); 3=high confidence ([…]−statistical). Dissociation constants are categorized as follows: A<1 μM; 1 μM≤B<100 μM; […]; 10 μM≤D<100 μM.
Reference compounds were assayed using the same protocol.

Sequence of His-labeled STING (Q86WV6 whole entry H232R): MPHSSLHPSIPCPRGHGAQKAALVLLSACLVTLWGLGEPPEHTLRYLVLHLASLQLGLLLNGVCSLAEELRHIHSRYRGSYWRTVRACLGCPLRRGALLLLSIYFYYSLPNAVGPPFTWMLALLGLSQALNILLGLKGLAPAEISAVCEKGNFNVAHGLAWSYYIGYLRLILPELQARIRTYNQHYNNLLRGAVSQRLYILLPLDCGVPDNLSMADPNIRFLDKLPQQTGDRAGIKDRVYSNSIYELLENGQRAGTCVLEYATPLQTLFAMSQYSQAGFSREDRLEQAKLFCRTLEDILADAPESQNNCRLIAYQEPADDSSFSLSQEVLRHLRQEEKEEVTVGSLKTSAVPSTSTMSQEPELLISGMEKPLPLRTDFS

Row | Dissociation Constant | SMILES | Confidence
1 | – | Cc1c(Cl)cccc1Nc1ncccc1COCC(O)CO (stereo not drawn) [Compound 1] | 1 (1=low confidence (<2 MST shift unit−non-statistical))
2 | – | Cc1c(Cl)cccc1Nc1ncccc1CO [Compound 4] | 2 (2=mid confidence (2-3 MST shift units−intermediate))
3 | – | COC(=O)c1cccnc1Nc1cccc(Cl)c1C [Compound 9] | 3 (3=high confidence (>2 MST shift units−statistical))
4 | Low R^2 | CCOC(=O)c1cccnc1Nc1cccc(Cl)c1C [Compound 10] | 1 (1=low confidence (<2 MST shift unit−non-statistical))
5 | – | CCCOC(=O)c1cccnc1Nc1cccc(Cl)c1C [Compound 11] | 1 (1=low confidence (<2 MST shift unit−non-statistical))
6 | – | C#CCOC(=O)c1cccnc1Nc1cccc(Cl)c1C [Compound 13] | 2 (2=mid confidence (2-3 MST shift units−intermediate))
7 | – | CNC(=O)c1cccnc1Nc1cccc(Cl)c1C [Compound 14] | 2 (2=mid confidence (2-3 MST shift units−intermediate))
8 | – | CCNC(=O)c1cccnc1Nc1cccc(Cl)c1C [Compound 15] | 1 (1=low confidence (<2 MST shift unit−non-statistical))
9 | – | CCCNC(=O)c1cccnc1Nc1cccc(Cl)c1C [Compound 16] | 2 (2=mid confidence (2-3 MST shift units−intermediate))
10 | – | C=CCNC(=O)c1cccnc1Nc1cccc(Cl)c1C [Compound 17] | 1 (1=low confidence (<2 MST shift unit−non-statistical))
11 | – | Cc1c(Cl)cccc1Nc1ncccc1C(=O)OCC(O)CO (stereo not drawn) [Compound 19] | 1 (1=low confidence (<2 MST shift unit−non-statistical))
12 | – | CCCCC(=O)c1cccnc1Nc1cccc(Cl)c1C [Compound 21] | 2 (2=mid confidence (2-3 MST shift units−intermediate))
13 | – | Cc1c(Br)cccc1Nc1ncccc1C(=O)O [Compound 23] | 3 (3=high confidence (>2 MST shift units−statistical))
14 | – | COC(=O)c1cccnc1Nc1cccc(Br)c1C [Compound 24] | 1 (1=low confidence (<2 MST shift unit−non-statistical))
15 | – | Cc1c(Nc2ncccc2C(=O)O)cccc1C(F)(F)F [Compound 27] | 3 (3=high confidence (>2 MST shift units−statistical))
16 | No Binding | Cc1c(Cl)cccc1Nc1ccccc1C(=O)O [Compound 36, Tolfenamic acid, reference compound] | 1 (1=low confidence (<2 MST shift unit−non-statistical))
17 | – | Cc1c(Cl)cccc1Nc1ncccc1C(=O)OCCCOC(=O)c1cccnc1Nc1cccc(Cl)c1C [Compound 41] | 1 (1=low confidence (<2 MST shift unit−non-statistical))
18 | – | Cc1c(Br)cccc1Nc1ncccc1C(=O)OCC(O)CO (stereo not drawn) [Compound 42] | 2 (2=mid confidence (2-3 MST shift units−intermediate))
19 | – | Cc1c(F)cccc1Nc1ncccc1C(=O)OCC(O)CO (stereo not drawn) [Compound 43] | 1 (1=low confidence (<2 MST shift unit−non-statistical))
20 | – | COC(=O)c1cccnc1Nc1cccc(F)c1C [Compound 44] | 1 (1=low confidence (<2 MST shift unit−non-statistical))
21 | No Binding | Cc1cccc(Nc2ccccc2C(=O)O)c1C [Compound 45] | 1 (1=low confidence (<2 MST shift unit−non-statistical))
22 | No Binding | Cc1cccc(Nc2ccccc2C(=O)OCC(O)CO)c1C (stereo not drawn) [Compound 46] | 1 (1=low confidence (<2 MST shift unit−non-statistical))
23 | No Binding | Cc1cccc(Nc2ncccc2C(=O)O)c1C [Compound 47] | 1 (1=low confidence (<2 MST shift unit−non-statistical))
24 | No Binding | Cc1cccc(Nc2ncccc2C(=O)OCC(O)CO)c1C (stereo not drawn) [Compound 48] | 1 (1=low confidence (<2 MST shift unit−non-statistical))
25 | – | Cc1c(Cl)cccc1Nc1ncccc1C(=O)OCCCCOC(=O)c1cccnc1Nc1cccc(Cl)c1C [Compound 49] | 1 (1=low confidence (<2 MST shift unit−non-statistical))
26 | – | Cc1c(Cl)cccc1Nc1ncccc1C(=O)OCCCCCOC(=O)c1cccnc1Nc1cccc(Cl)c1C [Compound 50] | 3 (3=high confidence (>2 MST shift units−statistical))
27 | – | NC(=O)NC1NC(=O)NC1=O (stereo not drawn) [Compound 52] | 3 (3=high confidence (>2 MST shift units−statistical))
